Results from patent US12528790B2, “Amide derivative having antiviral activity” (Shionogi & Co., Ltd., priority 2020, dated 2026).
pEC50: −log10 of the molar value. Like-named read-outs stand apart in the source and are kept apart here.

Key:
RSV A2 strain = test: In vitro CPE (CytoPathic Effect) inhibition effect evaluation test, RSV type A; assay type: cell-based
In short: (§1)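 EC50 is the concentration giving 50% inhibition of virus-induced cytopathic effect, fitted by nonlinear regression from CellTiter-Glo 2.0 viability. Compounds in 3-fold series were co-incubated at 37 °C with HEp-2 cells and RSV: A2 strain for 4 days, B (Wash/18537) for 5 days; uninfected wells served as control.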

[1] = tested on: RSV B (Wash/18537 strain); test: In vitro CPE (CytoPathic Effect) inhibition effect evaluation test, RSV type B; assay type: cell-based
In short: as §1

[2] = human respiratory syncytial virus, inhibitory effect against RSV type A (RSV A2 strain), HEp-2 cells, CPE inhibition, read-out: EC50
[3] = human respiratory syncytial virus, inhibitory effect against RSV type B, CPE inhibition, read-out: EC50

O=C(NC1(C(=O)O)C2CC3CC(C2)CC1C3)c1cnc(-c2cn(C3CCC(F)(F)CC3)c3cc(OC4CCN(c5ncccn5)CC4)ncc23)nc1C(F)(F)F (stereo not shown) [Compound I-268]
pEC50 (RSV A2 strain; human respiratory syncytial virus, HEp-2, 96 h, read-out: EC50, inhibitory effect against RSV type A (CPE inhibition)): 8.85 | pEC50 ([1]; human respiratory syncytial virus, HEp-2, 120 h, HEp-2 cells, RSV B (Wash/18537 strain), 5 days, CellTiter-Glo, read-out: EC50, inhibitory effect against RSV type B (CPE inhibition)): 8.37

O=C(NC1(C(=O)O)C2CC3CC(C2)CC1C3)c1ccc(-c2cn(S(=O)(=O)C3CC3)c3cc(OC4CCN(c5ncccn5)CC4)ccc23)nc1C(F)(F)F (stereo not shown) [Compound I-272]
pEC50 (RSV A2 strain; [2]): > 8.00 | pEC50 [1, 3]: 7.00 to 8.00

O=C(NC1(C(=O)O)C2CC3CC(C2)CC1C3)c1cnc(N2CC3(CCOCC3)c3cc(OC4CCN(c5ncc(F)cn5)CC4)ccc32)nc1C(F)(F)F (stereo not shown) [Compound I-275]
pEC50 (RSV A2 strain; [2]): > 8.00 | pEC50 [1, 3]: > 8.00

N#Cc1cc(C(=O)NC2(C(=O)O)C3CC4CC(C3)CC2C4)c(C(F)(F)F)nc1N1CC2(CCOCC2)c2cc(OC3CCN(c4ncccn4)CC3)ccc21 (stereo not shown) [Compound I-276]
pEC50 (RSV A2 strain; [2]): > 8.00 | pEC50 [1, 3]: > 8.00

O=C(NC1(C(=O)O)C2CC3CC(C2)CC1C3)c1cnc(N2CC3(CCOCC3)c3cc(C(=O)N4CCN(c5ncccn5)CC4)ccc32)nc1C(F)(F)F (stereo not shown) [Compound I-353]
pEC50 (RSV A2 strain; inhibitory effect against RSV type A (RSV A2 strain), HEp-2 cells, CPE inhibition, read-out: EC50): > 8.00 | pEC50 ([1]; inhibitory effect against RSV type B, CPE inhibition, read-out: EC50): > 8.00

O=C(NC1(C(=O)O)C2CC3CC(C2)CC1C3)c1cnc(-c2cn(C3CCC(F)(F)CC3)c3cc(OC4CCC5(CC4)CN(CC(F)(F)F)C5)ccc23)nc1C(F)(F)F (stereo not shown) [Compound I-370]
pEC50 (RSV A2 strain; [2]): > 8.00 | pEC50 [1, 3]: 7.00 to 8.00

O=C(NC1(C(=O)O)C2CC3CC(C2)CC1C3)c1cnc(-c2cn(C3CC3)c3cc(OC4CCN(c5ncc(F)cn5)CC4)ccc23)nc1C(F)(F)F (stereo not shown) [Compound I-379]
pEC50 (RSV A2 strain; [2]): > 8.00 | pEC50 [1, 3]: > 8.00

CC(F)(F)c1nc(N2CC3(CCCCC3)c3cc(OC4CCN(c5ncccn5)CC4)ccc32)ncc1C(=O)NC1(C(=O)O)C2CC3CC(C2)CC1C3 (stereo not shown) [Compound I-380]
pEC50 (RSV A2 strain; [2]): > 8.00 | pEC50 [1, 3]: > 8.00

O=C(NC1(C(=O)O)C2CC3CC(C2)CC1C3)c1cnc(N2CC3(CCCCC3)c3cc(OC4CCN(CC(F)(F)F)CC4)ccc32)nc1C(F)(F)F (stereo not shown) [Compound I-382]
pEC50 (RSV A2 strain; [2]): > 8.00 | pEC50 [1, 3]: 7.00 to 8.00

O=C(NC1(C(=O)O)C2CC3CC(C2)CC1C3)c1cnc(N2CC3(CCOCC3)c3cc(OC4CCN(CC(F)(F)F)CC4)ccc32)nc1C(F)(F)F (stereo not shown) [Compound I-384]
pEC50 (RSV A2 strain; [2]): > 8.00 | pEC50 [1, 3]: > 8.00

O=C(NC1(C(=O)O)C2CC3CC(C2)CC1C3)c1cnc(N2CC3(CCCCC3)c3cc(OC4CCN(C5CC(F)(F)C5)CC4)ccc32)nc1C(F)(F)F (stereo not shown) [Compound I-393]
pEC50 (RSV A2 strain; [2]): > 8.00 | pEC50 [1, 3]: 7.00 to 8.00

CC(F)(F)c1nc(N2CC3(CCCCC3)c3cc(OC4CCN(c5ncc(F)cn5)CC4)ccc32)ncc1C(=O)NC1(C(=O)O)C2CC3CC(C2)CC1C3 (stereo not shown) [Compound I-396]
pEC50 (RSV A2 strain; [2]): > 8.00 | pEC50 [1, 3]: > 8.00

O=C(NC1(C(=O)O)C2CC3CC(C2)CC1C3)c1cnc(N2CC3(CCCCC3)c3cc(OC4CCC5(CC4)COC5)ccc32)nc1C(F)(F)F (stereo not shown) [Compound I-399]
pEC50 (RSV A2 strain; [2]): > 8.00 | pEC50 [1, 3]: 7.00 to 8.00

CC(F)(F)c1nc(N2CC3(CCCCC3)c3cc(OC4CCN(C5CC(F)(F)C5)CC4)ccc32)ncc1C(=O)NC1(C(=O)O)C2CC3CC(C2)CC1C3 (stereo not shown) [Compound I-400]
pEC50 (RSV A2 strain; [2]): > 8.00 | pEC50 [1, 3]: 7.00 to 8.00

CC(F)(F)c1nc(N2CC3(CCCCC3)c3cc(OC4CCC5(CC4)COC5)ccc32)ncc1C(=O)NC1(C(=O)O)C2CC3CC(C2)CC1C3 (stereo not shown) [Compound I-401]
pEC50 (RSV A2 strain; [2]): > 8.00 | pEC50 [1, 3]: 7.00 to 8.00

O=C(NC1(C(=O)O)C2CC3CC(C2)CC1C3)c1cnc(N2CC3(CCOCC3)c3cc(OC4CCN(c5ncc(F)cn5)CC4)ncc32)nc1C(F)(F)F (stereo not shown) [Compound I-402]
pEC50 (RSV A2 strain; [2]): > 8.00 | pEC50 [1, 3]: > 8.00

O=C(NC1(C(=O)O)C2CC3CC(C2)CC1C3)c1cnc(-c2cn(C3CCC(F)(F)CC3)c3cc(OC4CC5(C4)CN(CC(F)(F)F)C5)ccc23)nc1C(F)(F)F (stereo not shown) [Compound I-406]
pEC50 (RSV A2 strain; [2]): > 8.00 | pEC50 [1, 3]: 7.00 to 8.00

O=C(NC1(C(=O)O)C2CC3CC(C2)CC1C3)c1cnc(-c2cn(C3CCC(F)(F)CC3)c3cc(OC4CC5(C4)CN(c4ncc(F)cn4)C5)ccc23)nc1C(F)(F)F (stereo not shown) [Compound I-407]
pEC50 (RSV A2 strain; [2]): > 8.00 | pEC50 [1, 3]: 5.30 to 7.00

O=C(NC1(C(=O)O)C2CC3CC(C2)CC1C3)c1cnc(-c2cn(C3CCC(F)(F)CC3)c3cc(O[C@H]4CC[C@@H](N5CC(F)(F)C5)CC4)ccc23)nc1C(F)(F)F (stereo partly shown) [Compound I-415]
pEC50 (RSV A2 strain; [2]): > 8.00 | pEC50 [1, 3]: > 8.00

O=C(NC1(C(=O)O)C2CC3CC(C2)CC1C3)c1cnc(-c2cn(C3CCC(F)(F)CC3)c3cc(C(=O)N4CCN(CC(F)(F)F)CC4)ccc23)nc1C(F)(F)F (stereo not shown) [Compound I-418]
pEC50 (RSV A2 strain; [2]): > 8.00 | pEC50 [1, 3]: > 8.00

CCC(CC)n1cc(-c2ncc(C(=O)NC3(C(=O)O)C4CC5CC(C4)CC3C5)c(C(F)(F)F)n2)c2ccc(OC3CCN(c4ncc(F)cn4)CC3)cc21 (stereo not shown) [Compound I-421]
pEC50 (RSV A2 strain; [2]): > 8.00 | pEC50 [1, 3]: > 8.00

CC(F)(F)CN1CCC(Oc2ccc3c(-c4ncc(C(=O)NC5(C(=O)O)C6CC7CC(C6)CC5C7)c(C(F)(F)F)n4)cn(C4CCC(F)(F)CC4)c3c2)CC1 (stereo not shown) [Compound I-422]
pEC50 (RSV A2 strain; [2]): > 8.00 | pEC50 [1, 3]: > 8.00

O=C(NC1(C(=O)O)C2CC3CC(C2)CC1C3)c1cnc(-c2cn(C3CCC(F)(F)CC3)c3cc(OC4CCN(CC5(F)COC5)CC4)ccc23)nc1C(F)(F)F (stereo not shown) [Compound I-429]
pEC50 (RSV A2 strain; [2]): > 8.00 | pEC50 [1, 3]: 7.00 to 8.00

O=C(NC1(C(=O)O)C2CC3CC(C2)CC1C3)c1cnc(-c2cn(C3CCOCC3)c3cc(OC4CCN(c5ncc(F)cn5)CC4)ccc23)nc1C(F)(F)F (stereo not shown) [Compound I-431]
pEC50 (RSV A2 strain; [2]): > 8.00 | pEC50 [1, 3]: > 8.00

O=C(NC1(C(=O)O)C2CC3CC(C2)CC1C3)c1cnc(-c2cn(C3CCC4(CC3)COC4)c3cc(OC4CCN(c5ncc(F)cn5)CC4)ccc23)nc1C(F)(F)F (stereo not shown) [Compound I-437]
pEC50 (RSV A2 strain; [2]): > 8.00 | pEC50 [1, 3]: > 8.00

O=C(NC1(C(=O)O)C2CC3CC(C2)CC1C3)c1cnc(N2CC3(CCCCC3)c3cc(OC4CCC(N5CC(F)(F)C5)CC4)ccc32)nc1C(F)(F)F (stereo not shown) [Compound I-438]
pEC50 (RSV A2 strain; [2]): > 8.00 | pEC50 [1, 3]: > 8.00

CC(F)(F)c1nc(N2CC3(CCCCC3)c3cc(OC4CCN(CC(F)(F)F)CC4)ccc32)ncc1C(=O)NC1(C(=O)O)C2CC3CC(C2)CC1C3 (stereo not shown) [Compound I-440]
pEC50 (RSV A2 strain; [2]): > 8.00 | pEC50 [1, 3]: 7.00 to 8.00

CC(F)(F)c1nc(N2CC3(CCCCC3)c3cc(O[C@H]4CC[C@H](N5CC(F)(F)C5)CC4)ccc32)ncc1C(=O)NC1(C(=O)O)C2CC3CC(C2)CC1C3 (stereo partly shown) [Compound I-443]
pEC50 (RSV A2 strain; [2]): > 8.00 | pEC50 [1, 3]: > 8.00

O=C(NC1(C(=O)O)C2CC3CC(C2)CC1C3)c1cnc(N2CC3(CCCCC3)c3cc(C(=O)N4CCN(c5ncccn5)CC4)ccc32)nc1C(F)(F)F (stereo not shown) [Compound I-444]
pEC50 (RSV A2 strain; [2]): > 8.00 | pEC50 [1, 3]: > 8.00

COC1(C)CCC(Oc2ccc3c(-c4ncc(C(=O)NC5(C(=O)O)C6CC7CC(C6)CC5C7)c(C(F)(F)F)n4)cn(C4CCC(F)(F)CC4)c3c2)CC1 (stereo not shown) [Compound I-445]
pEC50 (RSV A2 strain; [2]): > 8.00 | pEC50 [1, 3]: > 8.00

O=C(NC1(C(=O)O)C2CC3CC(C2)CC1C3)c1cnc(-c2cn(-c3ccccn3)c3cc(OC4CCN(c5ncc(F)cn5)CC4)ccc23)nc1C(F)(F)F (stereo not shown) [Compound I-447]
pEC50 (RSV A2 strain; [2]): > 8.00 | pEC50 [1, 3]: > 8.00

O=C(NC1(C(=O)O)C2CC3CC(C2)CC1C3)c1cnc(-c2cn(C3CCC(F)(F)CC3)c3cc(OC4CCC(N5CC(F)(F)C5)C4)ccc23)nc1C(F)(F)F (stereo not shown) [Compound I-451]
pEC50 (RSV A2 strain; [2]): > 8.00 | pEC50 [1, 3]: 7.00 to 8.00

O=C(NC1(C(=O)O)C2CC3CC(C2)CC1C3)c1ccc(-c2cn(C3CCC(F)(F)CC3)c3cc(O[C@H]4CC[C@H](N5CC(F)(F)C5)CC4)ccc23)nc1C(F)(F)F (stereo partly shown) [Compound I-452]
pEC50 (RSV A2 strain; [2]): > 8.00 | pEC50 [1, 3]: > 8.00

CC(F)(F)c1nc(N2CC3(CCCCC3)c3cc(C(=O)N4CCN(c5ncccn5)CC4)ccc32)ncc1C(=O)NC1(C(=O)O)C2CC3CC(C2)CC1C3 (stereo not shown) [Compound I-453]
pEC50 (RSV A2 strain; [2]): > 8.00 | pEC50 [1, 3]: > 8.00

O=C(NC1(C(=O)O)C2CC3CC(C2)CC1C3)c1cnc(N2CC3(CCCCC3)c3cc(CN4CCN(c5ncccn5)CC4)ccc32)nc1C(F)(F)F (stereo not shown) [Compound I-463]
pEC50 (RSV A2 strain; [2]): > 8.00 | pEC50 [1, 3]: 5.30 to 7.00

CC(F)(F)c1nc(N2CC3(CCCCC3)c3cc(CN4CCN(c5ncccn5)CC4)ccc32)ncc1C(=O)NC1(C(=O)O)C2CC3CC(C2)CC1C3 (stereo not shown) [Compound I-464]
pEC50 (RSV A2 strain; [2]): > 8.00 | pEC50 [1, 3]: 5.30 to 7.00

CC(F)(F)c1nc(N2CC3(CCOCC3)c3cc(OC4CCN(CC(F)(F)F)CC4)ccc32)ncc1C(=O)NC1(C(=O)O)C2CC3CC(C2)CC1C3 (stereo not shown) [Compound I-465]
pEC50 (RSV A2 strain; [2]): > 8.00 | pEC50 [1, 3]: > 8.00

O=C(NC1(C(=O)O)C2CC3CC(C2)CC1C3)c1cnc(N2CC3(CCOCC3)c3cc(-n4ncc5c4CCN(CC(F)(F)F)C5)ccc32)nc1C(F)(F)F (stereo not shown) [Compound I-472]
pEC50 (RSV A2 strain; [2]): > 8.00 | pEC50 [1, 3]: > 8.00
